Data set [1] is described as follows: Peptide stability in simulated intestinal fluid (SIF). The settings on record: Table 3-2, porcine pancreatin, pH 6.8, 37° C., 10 μM, 4 h. It is filed as in vitro ADME. The method, then:
Determination of Peptide Stability in Simulated Gastric Fluid (SGF) and Simulated Intestinal Fluid (SIF)
SGF was prepared by dissolving sodium chloride (0.2 g) in 50 mL of water. A volume of 0.7 mL of 10 M HCl was added to adjust the pH of the solution to 1.2 and the volume made up to 100 mL with water. […] SIF was prepared by dissolving monobasic potassium phosphate (0.68 g) in 50 mL of water and adjusting the pH to 6.8 with 1 M NaOH. The volume was subsequently made up to 100 mL with water. 200 mg porcine pancreatin (P1625, Sigma Aldrich) was gently dissolved into 20 mL preheated (37° C.) solution (10 g/L) immediately prior to the incubation.
The incubation was performed at 37° C. with gentle shaking. […] After the last timepoint, the sampling plate was mixed for 10 min on a shaking table and centrifuged 10 min at 2200 g. 70 μL resulting supernatant was diluted with 150 μL water, mixed and centrifugated before analysis by liquid chromatography high resolution mass spectrometry. […] Percent remaining at each timepoint was calculated relative to timepoint zero based on absolute peak areas.

Data set [2] has as its target T1, human IL-23R (Homo sapiens, UniProt Q5VWK5).
T1 construct: UniProtKB—Q5VWK5, amino acids 22-629; secretion signal of the plasmid (Promega N1371); expressed in transfected cells
T1 sequence (Q5VWK5 22-629): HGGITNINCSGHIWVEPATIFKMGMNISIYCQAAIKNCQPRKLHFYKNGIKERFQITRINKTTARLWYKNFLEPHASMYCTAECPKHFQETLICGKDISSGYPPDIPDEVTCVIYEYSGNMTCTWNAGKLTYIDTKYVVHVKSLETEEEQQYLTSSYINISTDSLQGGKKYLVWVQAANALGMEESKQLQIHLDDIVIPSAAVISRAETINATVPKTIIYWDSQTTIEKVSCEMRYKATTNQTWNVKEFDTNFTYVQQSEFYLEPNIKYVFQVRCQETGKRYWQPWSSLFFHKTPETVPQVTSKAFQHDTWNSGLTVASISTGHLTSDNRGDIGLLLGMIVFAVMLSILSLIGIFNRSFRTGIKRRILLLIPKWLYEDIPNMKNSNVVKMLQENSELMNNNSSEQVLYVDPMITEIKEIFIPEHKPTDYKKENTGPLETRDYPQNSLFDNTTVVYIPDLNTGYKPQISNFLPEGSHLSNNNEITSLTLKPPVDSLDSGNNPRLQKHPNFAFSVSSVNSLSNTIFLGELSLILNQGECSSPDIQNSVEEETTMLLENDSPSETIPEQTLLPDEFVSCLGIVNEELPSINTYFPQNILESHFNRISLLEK
Briefly: Binding assay (NanoBRET displacement of fluorophore-labelled reference compound) for estimating binding affinity to human IL-23R.

[3] abbreviates: Table 3-1, read-out: Ki hIL-23R.

Each structure is given as a SMILES string. Where two headings read alike, the source gives them in different places. *1 amine or outer side, *2 acyl side, *3 side chain or, on linkers, in order; H or OH if unused. Where a SMILES comes first, the peptide text is derived from it. Bridges are numbered along the chain shown (N, C = ends). [ ]: non-standard residue; d: D form. The star is where a group is joined. Trp(7-F) = N[C@@H](Cc1c[nH]c2c(F)cccc12)C(=O)O; αMeAla(3-pyridyl) = C[C@](N)(Cc1cccnc1)C(=O)O; Phe(3,4-Me2) = Cc1ccc(C[C@H](N)C(=O)O)cc1C; Bip = N[C@@H](Cc1ccc(-c2ccccc2)cc1)C(=O)O; 2Nal = N[C@@H](Cc1ccc2ccccc2c1)C(=O)O; AEF = NCCOc1ccc(C[C@H](N)C(=O)O)cc1; X24 = O=C(CCc1ccc(N[*:1])cc1)[*:2]; X1 = O=C(Cc1ccc(CN[*:1])cc1)[*:2]; αMeL = CC(C)C[C@](C)(N)C(=O)O; CH2COCH2 = O=C(C[*:1])C[*:2]; αMeV = CC(C)[C@](C)(N)C(=O)O; Pyrrolidide = C1CCN(*)C1; Dab = NCC[C@H](N)C(=O)O

As to `CC[C@H](C)[C@@H]1NC(=O)Cc2ccc(cc2)CNC(=O)CC[C@@H](C(=O)N[C@@H](CCN)C(=O)N[C@@](C)(Cc2cccnc2)C(N)=O)NC(=O)[C@](C)(C(C)C)NC(=O)[C@H](Cc2ccc(C)c(C)c2)NC(=O)[C@H](Cc2ccc(-c3ccccc3)cc2)NC(=O)[C@@H]2CCNC(=O)CC[C@H](NC1=O)C(=O)N[C@@H](Cc1c[nH]c3ccccc13)C(=O)N[C@@H](CCC(N)=O)C(=O)N2` [Compound 168, [4-Aminomethyl-phenylacetyl](1c)*IE(2c)WQ[Dab](2c)[Bip][F(3,4-Me)][2-Me-Val]E(1c)[Dab][2-Me-3-(3-Pyridyl)-Ala]-[NH2]] ([X1]IEWQ[Dab][Bip][Phe(3,4-Me2)][αMeV]E[Dab][αMeAla(3-pyridyl)]-NH2; lactam 3-6, N-10), the amount remaining at 4 h, 10 μM in data set [1] (pig, simulated intestinal fluid (SIF) with porcine pancreatin, read-out: SIF (% remaining 4 h)) was 104%.

For the molecule `CC(C)C[C@@H]1NC(=O)[C@H](Cc2c[nH]c3ccccc23)NC(=O)[C@H](Cc2c[nH]c3ccccc23)NC(=O)[C@@H]2CSCC(=O)CSC[C@H](NC(=O)[C@H]([C@@H](C)O)NC(=O)[C@@H](NC(=O)CN)CSCC(=O)CSC[C@@H](C(=O)N[C@@H](CO)C(N)=O)NC1=O)C(=O)N[C@@H](Cc1c[nH]c3ccccc13)C(=O)N[C@@H](CCC(=O)O)C(=O)N2` (single isomer, unassigned) [I1 (isomer 3), H-GC(1a)TC(2a)WEC(2a)WWLC(1a)S-[NH2], reference compound], the “SIF (% remaining 4 h)” value in data set [1] is 0%.

For the molecule `CC(C)C[C@@H]1NC(=O)[C@H](Cc2c[nH]c3ccccc23)NC(=O)[C@H](Cc2c[nH]c3ccccc23)NC(=O)[C@@H]2CSCC(=O)CSC[C@H](NC(=O)[C@H](CO)NC(=O)[C@@H](NC(=O)[C@@H](N)CC(=O)O)CSCC(=O)CSC[C@@H](C(=O)N[C@@H](CCCNC(=N)N)C(N)=O)NC1=O)C(=O)N[C@@H](Cc1c[nH]c3ccccc13)C(=O)N[C@@H](CCC(N)=O)C(=O)N2` (single isomer, unassigned) [I3 (isomer 3), H-DC(1a)SC(2a)WQC(2a)WWLC(1a)R-[NH2], reference compound], the “SIF (% remaining 4 h)” value in data set [1] is listed as 0%.

Usually Ki stands for the dissociation constant of the complex between target and ligand, obtained from inhibition or displacement. Regarding `CC(=O)N[C@H]1CCCCNC(=O)CC[C@@H](C(=O)N[C@H](CCCNC(=N)N)C(N)=O)NC(=O)[C@](C)(CC(C)C)NC(=O)[C@H](Cc2ccc3ccccc3c2)NC(=O)[C@H](Cc2ccc(OCCN)cc2)NC(=O)[C@@H]2CSCC(=O)CSC[C@H](NC(=O)[C@H](CO)NC1=O)C(=O)N[C@@H](Cc1c[nH]c3ccccc13)C(=O)N[C@@H](CCC(N)=O)C(=O)N2` [Compound 84, [Ac]-K(1c)SC(2a)WQC(2a)[Y(2-aminoethoxy)][2-Nal][2-Me-Leu]E(1c)[{d}R]-[NH2]] (Ac-KSCWQC[AEF][2Nal][αMeL]E[dR]-NH2; lactam 1-10; linker 3-6 via CH2COCH2), in data set [2] (setting [3]), the Ki was 0.922 nM.

As for `CC(C)C[C@]1(C)NC(=O)[C@H](Cc2ccc3ccccc3c2)NC(=O)[C@H](Cc2ccc(OCCN)cc2)NC(=O)[C@@H]2CCNC(=O)CC[C@H](NC(=O)[C@H](CCC(=O)N3CCCC3)NC(=O)Cc3ccc(cc3)CNC(=O)CC[C@@H](C(=O)N[C@@H](CCN)C(N)=O)NC1=O)C(=O)N[C@@H](Cc1c[nH]c3ccccc13)C(=O)N[C@@H](CCC(N)=O)C(=O)N2` [Compound 145, [4-Aminomethyl-phenylacetyl](1c)*[Q(pyrrolidin)]E(2c)WQ[Dab](2c)[Y(2-aminoethoxy)][2-Nal][2-Me-Leu]E(1c)[Dab]-[NH2]] ([X1]E(Pyrrolidide)EWQ[Dab][AEF][2Nal][αMeL]E[Dab]-NH2; lactam 3-6, N-10), the Ki in data set [2] (setting [3]) was 0.723 nM.

For the molecule `CC(C)C[C@]1(C)NC(=O)[C@H](Cc2ccc3ccccc3c2)NC(=O)[C@H](Cc2ccc(OCCN)cc2)NC(=O)[C@@H]2CSCC(=O)CSC[C@H](NC(=O)[C@H](CO)NC(=O)CCc3ccc(cc3)NC(=O)CC[C@@H](C(=O)N[C@@H](CCCNC(=N)N)C(N)=O)NC1=O)C(=O)N[C@@H](Cc1c[nH]c3ccccc13)C(=O)N[C@@H](CCC(N)=O)C(=O)N2` [Compound 51, [3-(4-Aminophenyl)propanoyl](1c)*SC(2a)WQC(2a)[Y(2-aminoethoxy)][2-Nal][2-Me-Leu]E(1c)R-[NH2]] ([X24]SCWQC[AEF][2Nal][αMeL]ER-NH2; linker 3-6 via CH2COCH2; lactam N-10), the Ki in data set [2] (Table 2-10b, read-out: Ki IL-23R) was 2 nM.

Turning to `CC(C)C[C@]1(C)NC(=O)[C@H](Cc2ccc3ccccc3c2)NC(=O)[C@H](Cc2ccc(OCCN)cc2)NC(=O)[C@@H]2CSCC(=O)CSC[C@H](NC(=O)[C@H](CO)NC(=O)Cc3ccc(cc3)CNC(=O)CC[C@@H](C(=O)N[C@H](CCCNC(=N)N)C(=O)O)NC1=O)C(=O)N[C@@H](Cc1c[nH]c3ccccc13)C(=O)N[C@@H](CCC(N)=O)C(=O)N2` [Compound 108, [4-Aminomethyl-phenylacetyl](1c)*SC(2a)WQC(2a)[Y(2-aminoethoxy)][2-Nal][2-Me-Leu]E(1c)[{d}R]-[OH]] ([X1]SCWQC[AEF][2Nal][αMeL]E[dR]-OH; linker 3-6 via CH2COCH2; lactam N-10), the Ki in data set [2] (setting [3]) is 0.0995 nM.

Take `CC(=O)N[C@@H](CC(=O)O)C(=O)N[C@H]1CSCC(=O)CSC[C@@H](C(=O)N[C@@H](CCC(=O)O)C(=O)N[C@@H](CC(N)=O)C(=O)NCC(N)=O)NC(=O)[C@](C)(CC(C)C)NC(=O)[C@H](Cc2c[nH]c3ccccc23)NC(=O)[C@H](Cc2c[nH]c3ccccc23)NC(=O)[C@@H]2CSCC(=O)CSC[C@H](NC(=O)[C@H](CCC(N)=O)NC1=O)C(=O)N[C@@H](Cc1c[nH]c3ccccc13)C(=O)N[C@@H](CCC(N)=O)C(=O)N2` [Compound 64, [Ac]-DC(1a)QC(2a)WQC(2a)WW[2-Me-Leu]C(1a)ENG-[NH2]] (Ac-DCQCWQCWW[αMeL]CENG-NH2; linker 2-11, 4-7 via CH2COCH2): the Ki in data set [2] is over 1000 nM.

For the molecule `CC(C)C[C@]1(C)NC(=O)[C@H](Cc2ccc3ccccc3c2)NC(=O)[C@H](Cc2ccc(OCCN)cc2)NC(=O)[C@@H]2CCNC(=O)CC[C@H](NC(=O)[C@H](CO)NC(=O)Cc3ccc(cc3)CNC(=O)CC[C@@H](C(=O)N[C@@H](CCN)C(N)=O)NC1=O)C(=O)N[C@@H](Cc1c[nH]c3ccccc13)C(=O)N[C@@H](CCC(=O)N1CCCC1)C(=O)N2` [Compound 146, [4-Aminomethyl-phenylacetyl](1c)*SE(2c)W[Q(pyrrolidin)][Dab](2c)[Y(2-aminoethoxy)][2-Nal][2-Me-Leu]E(1c)[Dab]-[NH2]] ([X1]SEWE(Pyrrolidide)[Dab][AEF][2Nal][αMeL]E[Dab]-NH2; lactam 3-6, N-10), in data set [2] (setting [3]), the Ki was 1.01 nM.

Consider `CC(C)C[C@]1(C)NC(=O)[C@H](Cc2ccc3ccccc3c2)NC(=O)[C@H](Cc2ccc(OCCN)cc2)NC(=O)[C@@H]2CCNC(=O)CC[C@H](NC(=O)[C@H](CO)NC(=O)Cc3ccc(cc3)CNC(=O)CC[C@@H](C(=O)N[C@@H](CCN)C(N)=O)NC1=O)C(=O)N[C@@H](Cc1c[nH]c3c(F)cccc13)C(=O)N[C@@H](CCC(N)=O)C(=O)N2` [Compound 139, [4-Aminomethyl-phenylacetyl](1c)*SE(2c)[7-F-Trp]Q[Dab](2c)[Y(2-aminoethoxy)][2-Nal][2-Me-Leu]E(1c)[Dab]-[NH2]] ([X1]SE[Trp(7-F)]Q[Dab][AEF][2Nal][αMeL]E[Dab]-NH2; lactam 3-6, N-10), for which, in data set [2] (setting [3]), the Ki was 0.612 nM.

With `CC(C)C[C@]1(C)NC(=O)[C@H](Cc2ccc3ccccc3c2)NC(=O)[C@H](Cc2ccc(OCCN)cc2)NC(=O)[C@@H]2CCNC(=O)CC[C@H](NC(=O)[C@H](C(C)C)NC(=O)Cc3ccc(cc3)CNC(=O)CC[C@@H](C(=O)N[C@@H](CCN)C(N)=O)NC1=O)C(=O)N[C@@H](Cc1c[nH]c3ccccc13)C(=O)N[C@@H](CCC(N)=O)C(=O)N2` [Compound 126, [4-Aminomethyl-phenylacetyl](1c)*VE(2c)WQ[Dab](2c)[Y(2-aminoethoxy][2-Nal][2-Me-Leu]E(1c)[Dab]-[NH2]] ([X1]VEWQ[Dab][AEF][2Nal][αMeL]E[Dab]-NH2; lactam 3-6, N-10), in data set [2] (setting [3]), the Ki is 0.718 nM.

The values above are taken from patent US20250154198A1, “PEPTIDE INHIBITORS OF INTERLEUKIN-23 RECEPTOR” (Zealand Pharma A/S, priority 2021, published 2025).
